Source: ChEMBL document CHEMBL1671673, “In vitro activity of colistin (polymyxin E) against 3,480 isolates of gram-negative bacilli obtained from patients in Canadian hospitals in the CANWARD study, 2007-2008” (Antimicrob Agents Chemother, 2009)

Columns and labels:
Format in all cases: functional, organism-based
Parameters in all cases: scale not given: the % may be the effect or the level left
Pseudomonas aeruginosa [1] = test: Antibacterial activity against Amikacin-resistant Pseudomonas aeruginosa assessed as susceptible isolates at minimum inhibitory concentration of 0.5 ug/ml by CLSI broth microdilution method
Pseudomonas aeruginosa [2] = test: Antibacterial activity against Pseudomonas aeruginosa assessed as susceptible isolates at minimum inhibitory concentration of 16 ug/ml by CLSI broth microdilution method
Acinetobacter baumannii [3] = test: Antibacterial activity against Acinetobacter baumannii assessed as susceptible isolates at minimum inhibitory concentration of 4 ug/ml by CLSI broth microdilution method
Pseudomonas aeruginosa [4] = test: Antibacterial activity against Cefepime-resistant Pseudomonas aeruginosa assessed as susceptible isolates at minimum inhibitory concentration of 1 ug/ml by CLSI broth microdilution method
Klebsiella oxytoca [5] = test: Antibacterial activity against Klebsiella oxytoca assessed as susceptible isolates at minimum inhibitory concentration of 2 ug/ml by CLSI broth microdilution method
Proteus mirabilis [6] = test: Antibacterial activity against Proteus mirabilis assessed as susceptible isolates at minimum inhibitory concentration of 0.12 ug/ml by CLSI broth microdilution method
Klebsiella oxytoca [7] = test: Antibacterial activity against Klebsiella oxytoca assessed as susceptible isolates at minimum inhibitory concentration of >16 ug/ml by CLSI broth microdilution method
Escherichia coli [8] = test: Antibacterial activity against ESBL-producing Escherichia coli assessed as susceptible isolates at minimum inhibitory concentration of 2 ug/ml by CLSI broth microdilution method
Acinetobacter baumannii [9] = test: Antibacterial activity against Acinetobacter baumannii assessed as susceptible isolates at minimum inhibitory concentration of 16 ug/ml by CLSI broth microdilution method
Pseudomonas aeruginosa [10] = test: Antibacterial activity against Pseudomonas aeruginosa assessed as susceptible isolates at minimum inhibitory concentration of 1 ug/ml by CLSI broth microdilution method
Pseudomonas aeruginosa [11] = test: Antibacterial activity against Gentamicin-resistant Pseudomonas aeruginosa assessed as susceptible isolates at minimum inhibitory concentration of 0.5 ug/ml by CLSI broth microdilution method
Proteus mirabilis [12] = test: Antibacterial activity against Proteus mirabilis assessed as susceptible isolates at minimum inhibitory concentration of 2 ug/ml by CLSI broth microdilution method
Pseudomonas aeruginosa [13] = test: Antibacterial activity against Pseudomonas aeruginosa assessed as susceptible isolates at minimum inhibitory concentration of 0.12 ug/ml by CLSI broth microdilution method
Serratia marcescens [14] = test: Antibacterial activity against Serratia marcescens assessed as susceptible isolates at minimum inhibitory concentration of 16 ug/ml by CLSI broth microdilution method
Serratia marcescens [15] = test: Antibacterial activity against Serratia marcescens assessed as susceptible isolates at minimum inhibitory concentration of 4 ug/ml by CLSI broth microdilution method
Klebsiella pneumoniae [16] = test: Antibacterial activity against ESBL-producing Klebsiella pneumoniae assessed as susceptible isolates at minimum inhibitory concentration of 1 ug/ml by CLSI broth microdilution method
Escherichia coli [17] = test: Antibacterial activity against ESBL-producing Escherichia coli assessed as susceptible isolates at minimum inhibitory concentration of 0.12 ug/ml by CLSI broth microdilution method
Pseudomonas aeruginosa [18] = test: Antibacterial activity against Gentamicin-resistant Pseudomonas aeruginosa assessed as susceptible isolates at minimum inhibitory concentration of 2 ug/ml by CLSI broth microdilution method
Pseudomonas aeruginosa [19] = test: Antibacterial activity against MDR4 Pseudomonas aeruginosa assessed as susceptible isolates at minimum inhibitory concentration of 0.5 ug/ml by CLSI broth microdilution method
Acinetobacter baumannii [20] = test: Antibacterial activity against Acinetobacter baumannii assessed as susceptible isolates at minimum inhibitory concentration of <=0.06 ug/ml by CLSI broth microdilution method
Klebsiella pneumoniae [21] = test: Antibacterial activity against ESBL-producing Klebsiella pneumoniae assessed as susceptible isolates at minimum inhibitory concentration of 4 ug/ml by CLSI broth microdilution method
Acinetobacter baumannii [22] = test: Antibacterial activity against Acinetobacter baumannii assessed as susceptible isolates at minimum inhibitory concentration of 0.25 ug/ml by CLSI broth microdilution method
[23] = system: Stenotrophomonas maltophilia; test: Antibacterial activity against Stenotrophomonas maltophilia assessed as susceptible isolates at minimum inhibitory concentration of >16 ug/ml by CLSI broth microdilution method
Serratia marcescens [24] = test: Antibacterial activity against Serratia marcescens assessed as susceptible isolates at minimum inhibitory concentration of 0.12 ug/ml by CLSI broth microdilution method
Klebsiella aerogenes [25] = test: Antibacterial activity against Enterobacter aerogenes assessed as susceptible isolates at minimum inhibitory concentration of 4 ug/ml by CLSI broth microdilution method
Klebsiella pneumoniae [26] = test: Antibacterial activity against ESBL-producing Klebsiella pneumoniae assessed as susceptible isolates at minimum inhibitory concentration of 8 ug/ml by CLSI broth microdilution method
Pseudomonas aeruginosa [27] = test: Antibacterial activity against MDR4 Pseudomonas aeruginosa assessed as susceptible isolates at minimum inhibitory concentration of 1 ug/ml by CLSI broth microdilution method
Klebsiella pneumoniae [28] = test: Antibacterial activity against ESBL-producing Klebsiella pneumoniae assessed as susceptible isolates at minimum inhibitory concentration of 16 ug/ml by CLSI broth microdilution method
Klebsiella pneumoniae [29] = test: Antibacterial activity against ESBL-producing Klebsiella pneumoniae assessed as susceptible isolates at minimum inhibitory concentration of >16 ug/ml by CLSI broth microdilution method
Enterobacter cloacae = test: Antibacterial activity against Enterobacter cloacae assessed as susceptible isolates at minimum inhibitory concentration of 1 ug/ml by CLSI broth microdilution method
Acinetobacter baumannii [30] = test: Antibacterial activity against Acinetobacter baumannii assessed as susceptible isolates at minimum inhibitory concentration of 2 ug/ml by CLSI broth microdilution method
Klebsiella aerogenes [31] = test: Antibacterial activity against Enterobacter aerogenes assessed as susceptible isolates at minimum inhibitory concentration of 0.12 ug/ml by CLSI broth microdilution method
Acinetobacter baumannii [32] = test: Antibacterial activity against Acinetobacter baumannii assessed as susceptible isolates at minimum inhibitory concentration of >16 ug/ml by CLSI broth microdilution method
Escherichia coli [33] = test: Antibacterial activity against ESBL-producing Escherichia coli assessed as susceptible isolates at minimum inhibitory concentration of 8 ug/ml by CLSI broth microdilution method
Klebsiella oxytoca [34] = test: Antibacterial activity against Klebsiella oxytoca assessed as susceptible isolates at minimum inhibitory concentration of 1 ug/ml by CLSI broth microdilution method
Pseudomonas aeruginosa [35] = test: Antibacterial activity against Gentamicin-resistant Pseudomonas aeruginosa assessed as susceptible isolates at minimum inhibitory concentration of 4 ug/ml by CLSI broth microdilution method
Pseudomonas aeruginosa [36] = test: Antibacterial activity against Cefepime-resistant Pseudomonas aeruginosa assessed as susceptible isolates at minimum inhibitory concentration of 2 ug/ml by CLSI broth microdilution method
Pseudomonas aeruginosa [37] = test: Antibacterial activity against Pseudomonas aeruginosa assessed as susceptible isolates at minimum inhibitory concentration of <=2 ug/ml by CLSI broth microdilution method
Escherichia coli [38] = test: Antibacterial activity against ESBL-producing Escherichia coli assessed as susceptible isolates at minimum inhibitory concentration of 0.5 ug/ml by CLSI broth microdilution method
Pseudomonas aeruginosa [39] = test: Antibacterial activity against MDR Pseudomonas aeruginosa assessed as susceptible isolates at minimum inhibitory concentration of 1 ug/ml by CLSI broth microdilution method

For COLISTIN, the Activity (Pseudomonas aeruginosa [1]) was 5.3%, the Activity (Pseudomonas aeruginosa [2]) was 99.1% and the Activity (Acinetobacter baumannii [3]) was 93.5%. It also gave an Activity (Pseudomonas aeruginosa [4]) of 39.7%, an Activity (Klebsiella oxytoca [5]) of 95.4% and an Activity (Proteus mirabilis [6]) of 0%. For the same sequence, the Activity (Klebsiella oxytoca [7]) was 100%, the Activity (Escherichia coli [8]) was 99.4% and the Activity (Acinetobacter baumannii [9]) was 96.8%. The Activity (Pseudomonas aeruginosa [10]) was 29.1%, the Activity (Pseudomonas aeruginosa [11]) was 3.8% and the Activity (Proteus mirabilis [12]) was 0%. It also gave an Activity (Pseudomonas aeruginosa [13]) of 0%, an Activity (Serratia marcescens [14]) of 1.9% and an Activity (Serratia marcescens [15]) of 1.9%. For the same sequence, the Activity (Klebsiella pneumoniae [16]) was 95%, the Activity (Escherichia coli [17]) was 1.2% and the Activity (Pseudomonas aeruginosa [18]) was 99%. The Activity (Pseudomonas aeruginosa [19]) was 7.7%, the Activity (Acinetobacter baumannii [20]) was 0% and the Activity (Klebsiella pneumoniae [21]) was 97.7%. It also gave an Activity (Acinetobacter baumannii [22]) of 0%, an Activity [23] of 100% and an Activity (Serratia marcescens [24]) of 0%. It also gave an Activity (Klebsiella aerogenes [25]) of 100%, an Activity (Klebsiella pneumoniae [26]) of 97.9% and an Activity (Pseudomonas aeruginosa [27]) of 42.3%. The Activity (Klebsiella pneumoniae [28]) was 98.1%, the Activity (Klebsiella pneumoniae [29]) was 100% and the Activity (Enterobacter cloacae) was 82.3%. It also gave an Activity (Acinetobacter baumannii [30]) of 93.5%, an Activity (Klebsiella aerogenes [31]) of 0% and an Activity (Acinetobacter baumannii [32]) of 100%. The Activity (Escherichia coli [33]) was 99.5%, the Activity (Klebsiella oxytoca [34]) was 91.7% and the Activity (Pseudomonas aeruginosa [35]) was 99%. For the same sequence, the Activity (Pseudomonas aeruginosa [36]) was 97.3%, the Activity (Pseudomonas aeruginosa [37]) was 91.6% and the Activity (Escherichia coli [38]) was 82.4%. For the same sequence, the Activity (Pseudomonas aeruginosa [39]) was 38.2%.
